Source: patent US20230159556A1, “NOVEL PROTEIN KINASE INHIBITORS” (TENOVA PHARMACEUTICALS INC., priority 2020, published 2023)

Target: T1, EGFR_L858R/T790M/C797S (Homo sapiens, UniProt P00533, C797S/L858R/T790M)
T1 construct: Reaction Biology Corporation (contract assay provider)
Experiment: In vitro biochemical kinase assay (33P-ATP filter-binding, Reaction Biology)
Experimental: The biochemical kinase assay was performed at Reaction Biology Corporation (www.reactionbiology.com, Malvern, Pa.) following procedures described in the reference (Anastassiadis, T, et al, Nature Biotechnology, 2011, 29, 1039). Base Reaction buffer includes 20 mM Hepes (pH 7.5), 10 mM MgCl2, 1 mM EGTA, 0.02% Brij35, 0.02 mg/ml BSA, 0.1 mM Na3VO4, 2 mM DTT and 1% DMSO. Required cofactors are added individually to each kinase reaction. Testing compounds were dissolved in 100% DMSO to specific concentration. The serial dilution was conducted by Integra Viaflo Assist in DMSO. Compounds in 100% DMSO are into the kinase reaction mixture by Acoustic technology (Echo550; nanoliter range), incubate for 20 min at room temperature, followed by ^33P-ATP and incubation for 2 hours at room temperature. Radioactivity was then detected by filter-binding method. Kinase activity data were expressed as the percent remaining kinase activity in test samples compared to vehicle (dimethyl sulfoxide) reactions. IC50 values and curve fits were obtained using Prism (GraphPad Software).

T1 sequence (P00533 25-1210 T790M/C797S/L858R): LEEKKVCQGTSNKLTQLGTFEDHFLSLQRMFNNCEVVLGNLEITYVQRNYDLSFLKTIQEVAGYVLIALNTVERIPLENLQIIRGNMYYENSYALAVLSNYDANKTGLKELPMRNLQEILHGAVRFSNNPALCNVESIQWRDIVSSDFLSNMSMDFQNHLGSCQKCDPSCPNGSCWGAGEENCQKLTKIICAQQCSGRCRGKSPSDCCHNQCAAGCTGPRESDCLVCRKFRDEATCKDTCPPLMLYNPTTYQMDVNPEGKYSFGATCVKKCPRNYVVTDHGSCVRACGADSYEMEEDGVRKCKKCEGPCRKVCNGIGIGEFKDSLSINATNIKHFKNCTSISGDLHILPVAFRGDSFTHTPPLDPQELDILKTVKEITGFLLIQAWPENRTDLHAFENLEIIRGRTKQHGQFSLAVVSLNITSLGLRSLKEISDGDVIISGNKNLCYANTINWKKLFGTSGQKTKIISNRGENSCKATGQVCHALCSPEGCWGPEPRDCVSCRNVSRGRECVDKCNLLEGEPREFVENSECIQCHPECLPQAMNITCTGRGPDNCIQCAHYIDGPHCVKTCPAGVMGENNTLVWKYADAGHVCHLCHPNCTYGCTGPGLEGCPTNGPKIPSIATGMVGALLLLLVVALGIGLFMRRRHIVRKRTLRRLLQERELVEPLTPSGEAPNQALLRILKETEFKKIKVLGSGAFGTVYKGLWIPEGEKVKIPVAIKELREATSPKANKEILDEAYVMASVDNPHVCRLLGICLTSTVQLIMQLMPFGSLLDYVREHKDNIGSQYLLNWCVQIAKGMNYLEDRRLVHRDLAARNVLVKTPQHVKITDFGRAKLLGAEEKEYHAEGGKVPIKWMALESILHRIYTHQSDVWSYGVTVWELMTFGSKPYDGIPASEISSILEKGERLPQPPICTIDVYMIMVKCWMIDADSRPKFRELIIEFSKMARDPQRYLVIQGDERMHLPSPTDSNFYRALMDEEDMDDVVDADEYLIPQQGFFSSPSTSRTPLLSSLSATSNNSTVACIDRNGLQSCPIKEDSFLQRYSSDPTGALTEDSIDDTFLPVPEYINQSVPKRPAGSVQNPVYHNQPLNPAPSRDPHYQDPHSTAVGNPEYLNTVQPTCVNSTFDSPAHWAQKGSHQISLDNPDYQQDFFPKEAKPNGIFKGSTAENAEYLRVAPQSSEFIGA

SMILES | IC50
COc1cc(N2CCN(C)CC2)c2cc1Nc1ncc(Cl)c(n1)Nc1ccc(cc1S(C)(=O)=O)OCCCC2 [Compound A6, 3^5-chloro-1^6-methoxy-1^4-(4-methylpiperazin-1-yl)-5^2-(methylsulfonyl)-6-oxa-2,4-diaza-3(2,4)-pyrimidina-1(1,3),5(1,4)-dibenzenacyclodecaphane] | 10000 nM
COc1cc(N2CCN(C)CC2)c2cc1Nc1ncc(Br)c(n1)Nc1ccc(cc1N(C)S(C)(=O)=O)OCCCCC2 [Compound A12, N-(3^5-bromo-1^6-methoxy-1^4-(4-methylpiperazin-1-yl)-6-oxa-2,4-diaza-3(2,4)-pyrimidina-1(1,3),5(1,4)-dibenzenacycloundecaphane-5^2-yl)-N-methylmethanesulfonamide] | 0.6 nM
COc1cc(N2CCN(C)CC2)c2cc1Nc1ncc(Cl)c(n1)Nc1ccc(cc1N(C)S(C)(=O)=O)OCCC2 [Compound A2, N-(3^5-chloro-1^6-methoxy-1^4-(4-methylpiperazin-1-yl)-6-oxa-2,4-diaza-3(2,4)-pyrimidina-1(1,3),5(1,4)-dibenzenacyclononaphane-5^2-yl)-N-methylmethanesulfonamide] | 643 nM
COc1cc(N2CCN(C)CC2)c2cc1Nc1ncc(F)c(n1)Nc1ccc(cc1N(C)S(C)(=O)=O)OCCCCC2 [Compound A11, N-(3^5-fluoro-1^6-methoxy-1^4-(4-methylpiperazin-1-yl)-6-oxa-2,4-diaza-3(2,4)-pyrimidina-1(1,3),5(1,4)-dibenzenacycloundecaphane-5^2-yl)-N-methylmethanesulfonamide] | 17 nM
COc1cc(N2CCC(N3CCN(C)CC3)CC2)c2cc1Nc1ncc(Br)c(n1)Nc1ccc(cc1N(C)S(C)(=O)=O)CCCNC(=O)CC2 [Compound A42] | 3.8 nM
COc1cc(N(C)CCN(C)C)c2cc1Nc1ncc(Cl)c(n1)Nc1ccc(cc1N(C)S(C)(=O)=O)OCCC2 [Compound A7, N-(3^5-chloro-1^4-((2-(dimethylamino)ethyl)(methyl)amino)-1^6-methoxy-6-oxa-2,4-diaza-3(2,4)-pyrimidina-1(1,3),5(1,4)-dibenzenacyclononaphane-5^2-yl)-N-methylmethanesulfonamide] | 3760 nM
COc1cc(N2CCC(N3CCN(C)CC3)CC2)c2cc1Nc1ncc(Cl)c(n1)Nc1ccc(cc1S(C)(=O)=O)OCCCCCC2 [Compound A19, 3^5-chloro-1^6-methoxy-1^4-(4-(4-methylpiperazin-1-yl)piperidin-1-yl)-5^2-(methylsulfonyl)-6-oxa-2,4-diaza-3(2,4)-pyrimidina-1(1,3),5(1,4)-dibenzenacyclododecaphane] | 180 nM
COc1cc(N2CCC(N3CCN(C)CC3)CC2)c2cc1Nc1ncc(Br)c(n1)Nc1ccc(cc1N(C)S(C)(=O)=O)CCC(=O)NCCC2 [Compound A41, N-(3^5-bromo-1^6-methoxy-1^4-(4-(4-methylpiperazin-1-yl)piperidin-1-yl)-8-oxo-2,4,9-triaza-3(2,4)-pyrimidina-1(1,3),5(1,4)-dibenzenacyclododecaphane-5^2-yl)-N-methylmethanesulfonamide] | 0.4 nM
COc1cc(N2CCC(N(C)CCN(C)C)CC2)c2cc1Nc1ncc(Br)c(n1)Nc1ccc(cc1N(C)S(C)(=O)=O)OCCCCC2 [Compound A36, N-(3^5-bromo-1^4-(4-((2-(dimethylamino)ethyl)(methyl)amino)piperidin-1-yl)-1^6-methoxy-6-oxa-2,4-diaza-3(2,4)-pyrimidina-1(1,3),5(1,4)-dibenzenacycloundecaphane-5^2-yl)-N-methylmethanesulfonamide] | 2.9 nM
COc1cc(N2CCC(N3CCN(C)CC3)CC2)c2cc1Nc1ncc(Cl)c(n1)Nc1ccc(cc1N(C)S(C)(=O)=O)OCCCCC(=O)N2 [Compound A40, N-(3^5-chloro-1^6-methoxy-1^4-(4-(4-methylpiperazin-1-yl)piperidin-1-yl)-11-oxo-6-oxa-2,4,12-triaza-3(2,4)-pyrimidina-1(1,3),5(1,4)-dibenzenacyclododecaphane-5^2-yl)-N-methylmethanesulfonamide] | 4.3 nM
